Test results taken from patent US7432392B2, “Ester derivatives and medical use thereof” (Japan Tobacco Inc., priority 2003, dated 2008).

Key:
[1] = Metabolic stability test in liver S9 (human); assay type: in vitro ADME; conditions: Human liver S9, 2 mg protein/mL, 37° C.
Protocol: (§1) Human and hamster liver S9 (final concentration: 2 mg protein/mL), and human and hamster small intestine S9 (final concentration: 2 mg protein/mL) were each suspended in 100 mM potassium phosphate buffer (pH 7.4, containing β-nicotinamide adenine dinucleotide phosphate: 1.3 mM, D-glucose-6-phosphate: 3.3 mM, magnesium chloride: 3.3 mM, and glucose-6-phosphate dehydrogenase: 0.4 U/mL). The suspensions were mixed with a solution of a sample (Example 1) in DMSO. The solutions were incubated at 37° C. for 0, 10 and 60 minutes, and an organic solvent was added thereto. The solutions were centrifuged, and the concentration of the sample (unchanged form) in the supernatant was determined by high performance liquid chromatography/mass spectrometry (LC/MS). Based on the data obtained, remaining rate (%) was calculated according to the following equation. Remaining rate(%)=amount of sample 10 or 60 minutes after incubation/amount of sample at zero time after incubation×100

[2] = Metabolic stability test in liver S9 (hamster); assay type: in vitro ADME; conditions: Hamster liver S9, 2 mg protein/mL, 37° C.
Protocol: as §1

[3] = system: apolipoprotein B secretion from HepG2 cells; assay: Inhibition of apolipoprotein B secretion from HepG2 cells; assay type: cell-based; conditions: Homo sapiens, about 20 hours incubation, apo B in supernatant by ELISA
Protocol: HepG2 cells were suspended in Dulbecco's Modified Eagle's Medium (DMEM) (containing 10% fetal bovine serum, 100 units/mL penicillin and 100 μg/mL streptomycin), and placed on a 96-well plate (4×10^4 cells/well), then incubated for 24 hours. After removal of the medium, DMEM was replaced by a medium containing a sample dissolved in DMSO or a medium containing DMSO (concentration of DMSO: 0.5%) and incubation was further performed for about 20 hours, after which the supernatant was recovered, and concentration of apo B in the supernatant was assayed by Enzyme-Linked Immunosorbent Assay (ELISA)
ELISA was carried out as follows. Anti-human apo B monoclonal antibody (0.5 μg/well) diluted with a 50 mM sodium carbonate/sodium bicarbonate buffer was placed in a 96-well plate for ELISA, and allowed to stand at room temperature for 15 hours. After washing the plate, a blocking solution (250 μL/well) was placed in the well, and allowed to stand at room temperature for 1.5 hours. After washing the plate, a standard and a sample (100 μL/well) were placed in the well and allowed to stand at room temperature for 1.5 hours. The standard was prepared by adjusting the concentration of the purified human apo B with the DMEM to 0 to 250 ng/mL. After washing the plate, an anti-human apo B polyclonal antibody labeled with a horse radish peroxidase which was diluted in 1:1000 with DEME (100 μL/well) was added, and allowed to stand at room temperature for 1.5 hours. After washing the plate, 2,2-azinobis(3-ethylbenzothiazoline-6-sulfonic acid) solution (100 μL/well) was placed in the well, and allowed to stand at room temperature for 0.5 hour. The reaction was stopped by addition of 2% oxalic acid (100 μL/well), and absorbency at 405 nm was measured. Concentration of apo B in the sample was calculated on the basis of a standard curve of the standard. Inhibition rate (%) was calculated from the assayed values in accordance with the following equation. Inhibition rate (%)=100×(1 minus (concentration of apo B in sample group/concentration of apo B in DMSO group).
Based on the above equation, 50% inhibition concentration (IC50) was determined.

With `CCOC(=O)C(COC(=O)Cc1ccc(NC(=O)c2ccccc2-c2ccc(C(F)(F)F)cc2)c(OC(C)=O)c1)(C(=O)OCC)c1ccccc1` [Example 1, 2-(2-{3-acetoxy-4-[(4′-trifluoromethyl-biphenyl-2-carbonyl)amino]phenyl}acetoxymethyl)-2-phenylmalonic acid diethyl ester] the “Remaining rate (%) after 10 minutes” value ([1]; 10 minutes) was 6.2%, the “Remaining rate (%) after 60 minutes” value ([1]; 60 minutes) was 1.8% and the “Remaining rate (%) after 10 minutes” value ([2]; 10 minutes) was 1.6%. The “Remaining rate (%) after 60 minutes” value ([2]; 60 minutes) was 0.0% and the IC50 [3] was less than 1000 nM.
